What was measured:
Format in all cases: biochemical
FLT3 = target: T1, FLT3 (Homo sapiens, UniProt P36888); test: FLT3 inhibition, FRET based Z'-LYTE Kinase Assay; details: 1 nM FLT3, 940 μM ATP; read-out: IC50 Range Flt3
T1 construct: purchased Invitrogen PV3182
T1 sequence (P36888 27-993): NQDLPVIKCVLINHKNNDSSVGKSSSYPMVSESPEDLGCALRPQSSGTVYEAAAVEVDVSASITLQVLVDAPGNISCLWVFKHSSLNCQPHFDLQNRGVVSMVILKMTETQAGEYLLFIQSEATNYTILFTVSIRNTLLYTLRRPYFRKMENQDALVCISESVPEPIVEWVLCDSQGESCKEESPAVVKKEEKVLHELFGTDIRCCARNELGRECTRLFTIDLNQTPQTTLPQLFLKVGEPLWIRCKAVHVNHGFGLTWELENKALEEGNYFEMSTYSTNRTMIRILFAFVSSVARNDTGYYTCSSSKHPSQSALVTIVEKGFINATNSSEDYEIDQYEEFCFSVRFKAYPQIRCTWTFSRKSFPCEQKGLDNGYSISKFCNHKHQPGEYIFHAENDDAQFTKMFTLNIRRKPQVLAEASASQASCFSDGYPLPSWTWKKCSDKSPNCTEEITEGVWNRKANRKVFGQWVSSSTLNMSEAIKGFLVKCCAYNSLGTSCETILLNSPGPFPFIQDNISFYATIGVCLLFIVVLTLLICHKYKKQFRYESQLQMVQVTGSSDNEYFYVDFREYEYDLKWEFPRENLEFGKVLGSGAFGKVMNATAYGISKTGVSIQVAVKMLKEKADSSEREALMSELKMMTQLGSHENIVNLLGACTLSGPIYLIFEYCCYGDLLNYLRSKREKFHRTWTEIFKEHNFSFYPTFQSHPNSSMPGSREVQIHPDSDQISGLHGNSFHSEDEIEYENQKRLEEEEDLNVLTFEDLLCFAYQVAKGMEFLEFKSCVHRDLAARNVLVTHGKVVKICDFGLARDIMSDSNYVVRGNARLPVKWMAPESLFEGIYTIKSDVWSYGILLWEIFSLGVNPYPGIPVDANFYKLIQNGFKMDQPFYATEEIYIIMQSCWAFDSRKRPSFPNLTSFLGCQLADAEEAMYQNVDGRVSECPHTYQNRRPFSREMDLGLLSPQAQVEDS
Description: (§1) FLT3 and LCK compound inhibition were determined using FRET based Z′-LYTE Kinase Assay Kit with Tyrosine 2 peptide as the substrate (Invitrogen cat #PV3191). […] The % inhibition values were determined according to the manufacturer's directions and IC50 values were obtained using a non-linear 4 point logistic curve fit (XLfit4, IDBS).

human HPK1 (MAP4K1) = target: T2, human HPK1 (MAP4K1) (Homo sapiens, UniProt Q92918); test: HPK1 inhibition assay (indirect ELISA); details: GST-HPK1 0.6 nM, 12 μM ATP; read-out: IC50 Range HPK1
T2 construct: human HPK1 (aa 1-346); purchased Invitrogen PV6355
T2 sequence (Q92918 1-346): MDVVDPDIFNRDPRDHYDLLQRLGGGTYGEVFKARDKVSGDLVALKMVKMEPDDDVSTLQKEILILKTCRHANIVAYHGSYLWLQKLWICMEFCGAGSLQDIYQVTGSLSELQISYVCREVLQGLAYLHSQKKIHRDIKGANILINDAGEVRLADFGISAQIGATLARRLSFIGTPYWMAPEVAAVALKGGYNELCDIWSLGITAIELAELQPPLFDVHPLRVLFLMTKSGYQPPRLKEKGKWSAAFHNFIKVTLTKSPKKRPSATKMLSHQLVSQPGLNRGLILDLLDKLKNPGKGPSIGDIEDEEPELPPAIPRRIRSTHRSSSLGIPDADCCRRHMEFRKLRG
Description: Active HPK1 (MAP4K1) was purchased as an N-terminal GST fusion of human HPK1 (aa 1-346) from Invitrogen (cat #PV6355). HPK1 activity was measured using an indirect ELISA detection system. GST-HPK1 (0.6 nM) was incubated in the presence of 12 μM ATP (Sigma cat #A7699), 5 mM MOPS (pH 7.2), 2.5 mM β-glycerol-phosphate, 5 mM MgCl2, 0.4 mM EDTA, 1 mM EGTA, 0.05 mM DTT, in a 96 well microtitre plate pre-coated with 0.5 μg/well bovine myelin basic protein (MBP) (Millipore, cat #13-110). The reaction was allowed to proceed for 30 min, followed by 5 washes of the plate with Wash Buffer (phosphate buffered saline supplemented with 0.2% Tween 20), and incubation for 30 min with a 1:3000 dilution of anti-phospho-threonine rabbit polyclonal antibody (Cell Signaling cat #9381). The plate was washed 5 times with wash buffer, incubated for 30 min in the presence of goat anti-rabbit horse radish peroxidase conjugate (BioRad cat #1721019, 1:3000 concentration), washed an additional 5 times with wash buffer, and incubated in the presence of TMB substrate (Sigma cat #T0440). The colorimetric reaction was allowed to continue for 5 min, followed by addition of stop solution (0.5 N H2SO4), and quantified by detection at 450 nm with a monochromatic plate reader (Molecular Devices M5).
Compound inhibition was determined at either a fixed concentration (10 μM) or at a variable inhibitor concentration (typically 50 μM to 0.1 μM in a 10 point dose response titration). Compounds were pre-incubated in the presence of enzyme for 15 min prior to addition of ATP and the activity remaining quantified using the above described activity assay. The % inhibition of a compound was determined using the following formula; % inhibition=100×(1−(experimental value−background value)/(high activity control−background value)). The IC50 value was determined using a non-linear 4 point logistic curve fit (XLfit4, IDBS) with the formula; (A+(B/(1+((x/C)^D)))), where A=background value, B=range, C=inflection point, D=curve fit parameter.

LCK = target: T3, LCK (Homo sapiens, UniProt P06239); test: LCK inhibition, FRET based Z'-LYTE Kinase Assay; details: 25 nM LCK, 180 μM ATP; read-out: IC50 Range Lck
T3 construct: purchased Invitrogen P3043
Description: as §1

T3 sequence (P06239 whole entry, species assumed): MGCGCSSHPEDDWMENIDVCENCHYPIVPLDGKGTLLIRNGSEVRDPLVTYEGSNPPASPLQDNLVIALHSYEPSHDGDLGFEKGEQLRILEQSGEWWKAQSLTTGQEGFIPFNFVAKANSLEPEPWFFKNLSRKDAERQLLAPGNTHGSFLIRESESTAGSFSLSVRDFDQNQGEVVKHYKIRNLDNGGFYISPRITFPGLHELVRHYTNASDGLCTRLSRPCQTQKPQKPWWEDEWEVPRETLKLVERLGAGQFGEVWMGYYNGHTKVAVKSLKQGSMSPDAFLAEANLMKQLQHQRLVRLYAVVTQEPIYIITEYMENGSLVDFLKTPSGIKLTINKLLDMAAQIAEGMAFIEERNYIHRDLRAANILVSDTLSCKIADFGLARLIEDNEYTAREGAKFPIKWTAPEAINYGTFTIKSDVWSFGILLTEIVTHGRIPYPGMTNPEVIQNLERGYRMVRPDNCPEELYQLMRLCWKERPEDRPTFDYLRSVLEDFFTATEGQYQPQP

Row | Structure (SMILES) | IC50 (FLT3) | IC50 (human HPK1 (MAP4K1)) | IC50 (LCK)
1 | CN1CCN(c2ccc3nc(-c4c(N[C@@H]5CC[C@@H](O)C5)c5ccsc5[nH]c4=O)[nH]c3c2)CC1 (relative stereo) [Example A9, 4-(((1R*,3R*)-3-hydroxycyclopentyl)amino)-5-(6-(4-methylpiperazin-1-yl)-1H-benzo[d]imidazol-2-yl)thieno[2,3-b]pyridin-6(7H)-one] | ≤ 50 nM | ≤ 50 nM | ≤ 50 nM
2 | CN1CCN(c2ccc3nc(-c4c(N[C@@H]5CC[C@H](O)C5)c5ccsc5[nH]c4=O)[nH]c3c2)CC1 (relative stereo) [Example A13, 4-(((1R*,3S*)-3-hydroxycyclopentyl)amino)-5-(6-(4-methylpiperazin-1-yl)-1H-benzo[d]imidazol-2-yl)thieno[2,3-b]pyridin-6(7H)-one] | ≤ 50 nM | ≤ 50 nM | 50 to 500 nM
3 | CN1CCN(c2ccc3nc(-c4c(N[C@@H]5CC[C@H](O)C5)c5sccc5[nH]c4=O)[nH]c3c2)CC1 (relative stereo) [Example A36, 7-(((1R*,3S*)-3-hydroxycyclopentyl)amino)-6-(6-(4-methylpiperazin-1-yl)-1H-benzo[d]imidazol-2-yl)thieno[3,2-b]pyridin-5(4H)-one] | ≤ 50 nM | ≤ 50 nM | ≤ 50 nM
4 | CN1CCN(c2ccc3nc(-c4c(N[C@H]5CCNC[C@H]5F)c5ccsc5[nH]c4=O)[nH]c3c2)CC1 (relative stereo) [Example A55, 4-(((3R*,4S*)-3-fluoropiperidin-4-yl)amino)-5-(6-(4-methylpiperazin-1-yl)-1H-benzo[d]imidazol-2-yl)thieno[2,3-b]pyridin-6(7H)-one] | ≤ 50 nM | ≤ 50 nM | 50 to 500 nM
5 | Cc1csc2[nH]c(=O)c(-c3nc4ccc(N5CCN(C)CC5)cc4[nH]3)c(N)c12 [Example A2, 4-amino-3-methyl-5-(6-(4-methylpiperazin-1-yl)-1H-benzo[d]imidazol-2-yl) thieno[2,3-b]pyridin-6(7H)-one] | ≤ 50 nM | ≤ 50 nM | 50 to 500 nM
6 | Nc1c(-c2nc3ccc(N4CCOCC4)cc3[nH]2)c(=O)[nH]c2sccc12 [Example A4, 4-amino-5-(6-morpholino-1H-benzo[d]imidazol-2-yl)thieno[2,3-b]pyridin-6(7H)-one] | ≤ 50 nM | ≤ 50 nM | 50 to 500 nM
7 | CN1CCN(c2ccc3nc(-c4c(NC5CCOCC5)c5ccsc5[nH]c4=O)[nH]c3c2)CC1 [Example A7, 5-(6-(4-methylpiperazin-1-yl)-1H-benzo[d]imidazol-2-yl)-4-((tetrahydro-2H-pyran-4-yl)amino)thieno[2,3-b]pyridin-6(7H)-one] | ≤ 50 nM | ≤ 50 nM | 50 to 500 nM
8 | CN1CCN(c2ccc3nc(-c4c(N[C@H]5C[C@H](O)C5)c5ccsc5[nH]c4=O)[nH]c3c2)CC1 [Example A8, 4-(((1r,3r)-3-hydroxycyclobutyl)amino)-5-(6-(4-methylpiperazin-1-yl)-1H-benzo[d]imidazol-2-yl)thieno[2,3-b]pyridin-6(7H)-one] | ≤ 50 nM | ≤ 50 nM | 50 to 500 nM
9 | CN1CCN(c2ccc3nc(-c4c(N[C@@H]5CCNC[C@H]5F)c5ccsc5[nH]c4=O)[nH]c3c2)CC1 [Example A14, 4-(((3R,4R)-3-fluoropiperidin-4-yl)amino)-5-(6-(4-methylpiperazin-1-yl)-1H-benzo[d]imidazol-2-yl)thieno[2,3-b]pyridin-6(7H)-one] | ≤ 50 nM | ≤ 50 nM | ≤ 50 nM
10 | CN1CCN(c2ccc3nc(-c4c(NC5CCNCC5(F)F)c5ccsc5[nH]c4=O)[nH]c3c2)CC1 (stereo not shown) [Example A15, 4-((3,3-difluoropiperidin-4-yl)amino)-5-(6-(4-methylpiperazin-1-yl)-1H-benzo[d]imidazol-2-yl)thieno[2,3-b]pyridin-6(7H)-one] | ≤ 50 nM | ≤ 50 nM | ≤ 50 nM
11 | CN1CCN(c2ccc3nc(-c4c(NC5CCN(C=O)CC5)c5ccsc5[nH]c4=O)[nH]c3c2)CC1 [Example A17, 4-((5-(6-(4-methylpiperazin-1-yl)-1H-benzo[d]imidazol-2-yl)-6-oxo-6,7-dihydrothieno[2,3-b]pyridin-4-yl)amino)piperidine-1-carbaldehyde] | ≤ 50 nM | ≤ 50 nM | ≤ 50 nM
12 | CN1CCN(c2ccc3nc(-c4c(NCc5ccncc5)c5sccc5[nH]c4=O)[nH]c3c2)CC1 [Example A22, 6-(6-(4-methylpiperazin-1-yl)-1H-benzo[d]imidazol-2-yl)-7-((pyridin-4-ylmethyl)amino)thieno[3,2-b]pyridin-5(4H)-one] | ≤ 50 nM | ≤ 50 nM | 50 to 500 nM
13 | CN1CCN(c2ccc3nc(-c4c(NC5CCCC5)c5cscc5[nH]c4=O)[nH]c3c2)CC1 [Example A24, 4-(cyclopentylamino)-3-(6-(4-methylpiperazin-1-yl)-1H-benzo[d]imidazol-2-yl)thieno[3,4-b]pyridin-2(1H)-one] | ≤ 50 nM | ≤ 50 nM | ≤ 50 nM
14 | CN1CCN(c2ccc3nc(-c4c(NC5CCC5)c5cscc5[nH]c4=O)[nH]c3c2)CC1 [Example A27, 4-(cyclobutylamino)-3-(6-(4-methylpiperazin-1-yl)-1H-benzo[d]imidazol-2-yl)thieno[3,4-b]pyridin-2(1H)-one] | ≤ 50 nM | ≤ 50 nM | ≤ 50 nM
15 | Nc1c(-c2nc3ccc(N4CCOCC4)cc3[nH]2)c(=O)[nH]c2ccsc12 [Example A31, 7-amino-6-(6-morpholino-1H-benzo[d]imidazol-2-yl)thieno[3,2-b]pyridin-5(4H)-one] | ≤ 50 nM | ≤ 50 nM | 50 to 500 nM
16 | CN1CCN(c2ccc3nc(-c4c(N)c5ccsc5[nH]c4=O)[nH]c3c2F)CC1 [Example A69, 4-amino-5-(7-fluoro-6-(4-methylpiperazin-1-yl)-1H-benzo[d]imidazol-2-yl)thieno[2,3-b]pyridin-6(7H)-one] | ≤ 50 nM | – | 50 to 500 nM
17 | CN1CCN(c2ccc3nc(-c4c(N[C@H]5CCCC[C@H]5O)c5cscc5[nH]c4=O)[nH]c3c2)CC1 [Example A70, 4-(((1S,2R)-2-hydroxycyclohexyl)amino)-3-(6-(4-methylpiperazin-1-yl)-1H-benzo[d]imidazol-2-yl)thieno[3,4-b]pyridin-2(1H)-one] | ≤ 50 nM | – | ≤ 50 nM
